From ChEMBL document CHEMBL5352429, “Designed symmetrical β-hairpin peptides for treating multidrug-resistant salmonella typhimurium infections” (Eur J Med Chem, 2022)
In brackets after ≈: the same amount, converted by molar mass. Activity calls are given as the source filed them. The rule behind the calls is not given here. Peptide text beside a SMILES is read from it.

How the values were obtained:
[1] = test system: Staphylococcus epidermidis; assay: Antibacterial activity against methicillin-resistant Staphylococcus epidermidis ATCC 12228 incubated overnight by standard microtiter dilution method; type: functional
Enterococcus faecalis = assay: Antibacterial activity against Enterococcus faecalis ATCC 29212 incubated overnight by standard microtiter dilution method; type: functional
[2] = Antibacterial activity against Salmonella enterica subsp. enterica serovar Choleraesuis ATCC 13312 incubated overnight by standard microtiter dilution method; type: functional
[3] = Antibacterial activity against Salmonella enterica subsp. enterica serovar Choleraesuis CICC 21493 incubated overnight by standard microtiter dilution method; type: functional
Salmonella typhimurium [4] = assay: Antibacterial activity against Salmonella typhimurium CICC 21483 incubated overnight by standard microtiter dilution method; type: functional, Salmonella enterica subsp. enterica serovar Typhimurium; conditions: Salmonella enterica
Salmonella typhimurium [5] = assay: Antibacterial activity against Salmonella typhimurium CICC 21913 incubated overnight by standard microtiter dilution method; type: functional, Salmonella enterica subsp. enterica serovar Typhimurium; conditions: Salmonella enterica
[6] = Antibacterial activity against Salmonella dublin CICC 21497 incubated overnight by standard microtiter dilution method; type: functional, Salmonella enterica subsp. enterica serovar Dublin; conditions: Salmonella enterica
Salmonella typhimurium [7] = assay: Antibacterial activity against Salmonella typhimurium DT104 ATCC 700408 incubated overnight by standard microtiter dilution method; type: functional, Salmonella enterica subsp. enterica serovar Typhimurium; conditions: Salmonella enterica
Salmonella typhimurium [8] = assay: Antibacterial activity against Salmonella typhimurium DT104 in the presence of NaCl by MH broth based assay; type: functional, Salmonella enterica subsp. enterica serovar Typhimurium; conditions: Salmonella enterica
Salmonella typhimurium [9] = assay: Antibacterial activity against Salmonella typhimurium DT104 in the presence of KCl by MH broth based assay; type: functional, Salmonella enterica subsp. enterica serovar Typhimurium; conditions: Salmonella enterica
Salmonella typhimurium [10] = assay: Antibacterial activity against Salmonella typhimurium DT104 in the presence of NH4Cl by MH broth based assay; type: functional, Salmonella enterica subsp. enterica serovar Typhimurium; conditions: Salmonella enterica
Salmonella typhimurium [11] = assay: Antibacterial activity against Salmonella typhimurium DT104 in the presence of CaCl2 by MH broth based assay; type: functional, Salmonella enterica subsp. enterica serovar Typhimurium; conditions: Salmonella enterica
[12] = Hemolytic activity in human Red blood cells assessed as hemolysis at 128 ug/ml incubated for 1 hrs by absorbance based microplate reader analysis relative to control; type: toxicity, cell-based, Erythrocyte; conditions: red blood cells (erythrocytes), at 128 µg/mL, read-out: Activity
Salmonella typhimurium [13] = assay: Antibacterial activity against multi-drug resistant Salmonella typhimurium DT104 assessed as inhibition of bacterial growth measured upto 120 mins by MH agar based serial dilution method; type: functional, organism-based; conditions: Salmonella enterica subsp. enterica serovar Typhimurium
Salmonella typhimurium [14] = assay: Antibacterial activity against Salmonella typhimurium DT104 infected in mouse RAW264.7 cells assessed as reduction in bacterial cells at 1 times of MIC measured for 180 mins by MH agar based serial dilution method; type: functional, organism-based; conditions: Salmonella enterica subsp. enterica serovar Typhimurium
[15] = Cytotoxicity against mouse RAW264.7 cells infected with Salmonella typhimurium DT104 assessed as cell viability at 1 times of MIC measured at 180 min by MTT assay; type: toxicity, cell-based; conditions: RAW264.7 cells infected with Salmonella typhimurium DT104, read-out: Activity
RAW264.7 [16] = assay: Anti-inflammatory activity in mouse RAW264.7 cells assessed as inhibition of LPS-induced iNOS mRNA expression at 15 ug/ml preincubated with compound for 30 mins followed by LPS stimulation and measured after 4 hrs by RT-PCR analysis; type: functional, cell-based; conditions: dose 15.0 µg/ml, time 4.5 hrs
RAW264.7 [17] = assay: Anti-inflammatory activity in mouse RAW264.7 cells assessed as inhibition of LPS-induced TNF-alpha mRNA expression at 15 ug/ml preincubated with compound for 30 mins followed by LPS stimulation and measured after 4 hrs by RT-PCR analysis; type: functional, cell-based; conditions: dose 15.0 µg/ml, time 4.5 hrs
RAW264.7 [18] = assay: Anti-inflammatory activity in mouse RAW264.7 cells assessed as inhibition of LPS-induced IL-10 mRNA expression at 15 ug/ml preincubated with compound for 30 mins followed by LPS stimulation and measured after 4 hrs by RT-PCR analysis; type: functional, cell-based; conditions: dose 15.0 µg/ml, time 4.5 hrs
RAW264.7 [19] = assay: Inhibition of LPS-stimulated IL-1beta production in mouse RAW264.7 cells at 1 to 128 ug/ml incubated for 24 hrs by ELISA analysis; type: functional, cell-based; conditions: dose 1-128 µg/ml
Salmonella typhimurium [20] = assay: Antibacterial activity against multi-drug resistant Salmonella typhimurium DT104 infected in ICR mouse model assessed as reduction in bacterial population in fecus at 2 mg/kg, ip administered for 3 days; type: functional, organism-based; conditions: Salmonella enterica subsp. enterica serovar Typhimurium, time 3.0 day
Salmonella typhimurium [21] = assay: Antibacterial activity against Salmonella typhimurium DT104 infected in ICR mouse model assessed as body weight gain at 2 mg/kg, ip administered for 3 days and measured from day 4 to day 7; type: functional, organism-based; conditions: Salmonella enterica subsp. enterica serovar Typhimurium, time 7.0 day
Salmonella typhimurium [22] = assay: Antibacterial activity against Salmonella typhimurium DT104 infected in ICR mouse model assessed as reduction in bacterial translocation to liver at 2 mg/kg, ip administered for 3 days and measured on day 7 by serial dilution method; type: functional, organism-based; conditions: Salmonella enterica subsp. enterica serovar Typhimurium, time 7.0 day
Salmonella typhimurium [23] = assay: Antibacterial activity against Salmonella typhimurium DT104 assessed as reduction in IL-1beta mRNA level in ileum at 20 mg/kg, ip administered for 3 days and measured on day 7 by RT-PCR analysis; type: functional, organism-based; conditions: Salmonella enterica subsp. enterica serovar Typhimurium, time 7.0 day
Salmonella typhimurium [24] = assay: Antibacterial activity against Salmonella typhimurium DT104 assessed as reduction in IL-4 mRNA level in ileum at 20 mg/kg, ip administered for 3 days and measured on day 7 by RT-PCR analysis; type: functional, organism-based; conditions: Salmonella enterica subsp. enterica serovar Typhimurium, time 7.0 day
Salmonella typhimurium [25] = assay: Antibacterial activity against Salmonella typhimurium DT104 assessed as reduction in IL-8 production in serum at 20 mg/kg, ip administered for 3 days and measured on day 7; type: functional, organism-based; conditions: Salmonella enterica subsp. enterica serovar Typhimurium, time 7.0 day
Salmonella typhimurium [26] = assay: Antibacterial activity against Salmonella typhimurium DT104 assessed as increase in occludin mRNA level in colon at 20 mg/kg, ip administered for 3 days and measured on day 7 by RT-PCR analysis; type: functional, organism-based; conditions: Salmonella enterica subsp. enterica serovar Typhimurium, time 7.0 day
Salmonella typhimurium [27] = assay: Antibacterial activity against Salmonella typhimurium DT104 assessed as increase in claudin mRNA level in colon at 20 mg/kg, ip administered for 3 days and measured on day 7 by RT-PCR analysis; type: functional, organism-based; conditions: Salmonella enterica subsp. enterica serovar Typhimurium, time 7.0 day
Salmonella typhimurium [28] = assay: Antibacterial activity against Salmonella typhimurium DT104 infected in ICR mouse model assessed as increase in ZO-1 expression in villous at 20 mg/kg, ip administered for 3 days and measured on day 7 […] by immunohistochemistry analysis; type: functional, organism-based; conditions: Salmonella enterica subsp. enterica serovar Typhimurium, time 7.0 day
Salmonella typhimurium [29] = assay: Antibacterial activity against Salmonella typhimurium DT104 infected in ICR mouse model assessed as alleviation of intestinal mucosal damage at 20 mg/kg, ip administered for 3 days and measured on day 7 by H&E staining based analysis; type: functional, organism-based; conditions: Salmonella enterica subsp. enterica serovar Typhimurium, time 7.0 day
Lipid bilayer = assay: Induction of outer membrane permeabilization in Salmonella typhimurium DT104 at 0.625 to 15 microg/ml by NPN uptake based fluorescence spectrophotometric analysis; conditions: Salmonella enterica subsp. enterica serovar Typhimurium, dose 0.625-15 µg/ml
Cell membrane [30] = assay: Induction of cytoplasmic membrane depolarization in Salmonella typhimurium DT104 assessed as increase in fluorescence intensity at 2 times of MIC incubated for 15 mins by DiSC3-5 dye based fluorescence method; type: subcellular; conditions: Salmonella enterica subsp. enterica serovar Typhimurium
Cell membrane [31] = assay: Disruption of membrane integrity in Salmonella typhimurium DT104 assessed as increase in red fluorescence at 1 times of MIC incubated for 60 mins by PI and SYTO9 staining based confocal laser scanning microscopic analysis; type: subcellular; conditions: Salmonella enterica subsp. enterica serovar Typhimurium
Cell membrane [32] = assay: Induction of membrane damage in Salmonella typhimurium DT104 assessed as cytoplasmic outflow at 1 times of MIC incubated for 60 mins by transmission electron microscopic analysis; type: subcellular; conditions: Salmonella enterica subsp. enterica serovar Typhimurium
Cell membrane [33] = assay: Induction of membrane damage in Salmonella typhimurium DT104 assessed as cytoplasmic outflow at 1 times of MIC incubated for 15 mins by confocal laser scanning microscopic analysis; type: subcellular; conditions: Salmonella enterica subsp. enterica serovar Typhimurium

SMILES: C[C@@H](O)[C@H](NC(=O)[C@H](CS)NC(=O)[C@H](CCCCN)NC(=O)[C@H](Cc1c[nH]c2ccccc12)NC(=O)[C@H](CCCCN)NC(=O)[C@@H](N)Cc1c[nH]c2ccccc12)C(=O)N[C@@H](CCCCN)C(=O)N[C@@H](CO)C(=O)NCC(=O)N[C@@H](CS)C(=O)N[C@@H](CCCCN)C(=O)N[C@@H](Cc1c[nH]c2ccccc12)C(=O)N[C@@H](CCCCN)C(=O)N[C@@H](Cc1c[nH]c2ccccc12)C(N)=O (H-WKWKCTKSGCKWKW-NH2)
- MIC [1]: 4 µg/mL (≈ 2.16 µM)
- MIC (Enterococcus faecalis): 2 µg/mL (≈ 1.08 µM)
- MIC [2]: 1 µg/mL (≈ 0.539 µM)
- MIC [3]: 8 µg/mL (≈ 4.31 µM)
- MIC (Salmonella typhimurium [4]): 4 µg/mL (≈ 2.16 µM)
- MIC (Salmonella typhimurium [5]): 8 µg/mL (≈ 4.31 µM)
- MIC [6]: 8 µg/mL (≈ 4.31 µM)
- MIC (Salmonella typhimurium [7]): 4 µg/mL (≈ 2.16 µM)
- MIC (Salmonella typhimurium [8]): 4 µg/mL
- MIC (Salmonella typhimurium [9]): 8 µg/mL
- MIC (Salmonella typhimurium [10]): 4 µg/mL
- MIC (Salmonella typhimurium [11]): 8 µg/mL
- hemolysis at 1 h, 128 ug/ml [12]: < 10%
- Activity (Salmonella typhimurium [13]): Dose-Dependent Effect
- Activity (Salmonella typhimurium [14]): Active
- viability at 3 h, 1 times of MIC [15]: > 90%
- inhibition (RAW264.7 [16]): Active
- inhibition (RAW264.7 [17]): Active
- inhibition (RAW264.7 [18]): Active
- inhibition (RAW264.7 [19]): Active
- Activity (Salmonella typhimurium [20]): Active
- Activity (Salmonella typhimurium [21]): Active
- Activity (Salmonella typhimurium [22]): Active
- Activity (Salmonella typhimurium [23]): Active
- Activity (Salmonella typhimurium [24]): Active
- Activity (Salmonella typhimurium [25]): Active
- Activity (Salmonella typhimurium [26]): Active
- Activity (Salmonella typhimurium [27]): Active
- Activity (Salmonella typhimurium [28]): Active
- Activity (Salmonella typhimurium [29]): Active
- Activity (Lipid bilayer): Active
- Activity (Cell membrane [30]): Active
- Activity (Cell membrane [31]): Active
- Activity (Cell membrane [32]): Active
- Activity (Cell membrane [33]): Active
